Measurements reported in ChEMBL document CHEMBL1140322, “New pyrrolo[2,1-f]purine-2,4-dione and imidazo[2,1-f]purine-2,4-dione derivatives as potent and selective human A3 adenosine receptor antagonists” (J Med Chem, 2005).

Experiments:
[1] = target: Adenosine receptors; A2a & A3 (Homo sapiens) (UniProt P0DMS8+P29274); test: Relative binding affinity for human adenosine A2a and A3 receptors; type: protein assay
Adenosine receptor A1 = target: T1, Adenosine receptor A1 (Homo sapiens, UniProt P30542); test: Inhibition of [3H]DPCPX binding to human adenosine A1 receptor expressed in CHO cells; type: cell-based
T1 sequence (P30542 whole entry): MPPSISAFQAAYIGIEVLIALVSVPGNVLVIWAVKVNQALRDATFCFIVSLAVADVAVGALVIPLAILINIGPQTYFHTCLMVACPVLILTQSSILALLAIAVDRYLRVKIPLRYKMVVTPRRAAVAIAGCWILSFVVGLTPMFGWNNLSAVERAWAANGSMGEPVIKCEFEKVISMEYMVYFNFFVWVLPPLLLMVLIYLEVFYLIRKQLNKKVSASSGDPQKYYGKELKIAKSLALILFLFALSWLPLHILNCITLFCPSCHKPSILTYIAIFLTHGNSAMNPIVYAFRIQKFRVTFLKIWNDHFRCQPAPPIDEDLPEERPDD

Adenosine receptor A2a = Adenosine receptor A2a (Homo sapiens, UniProt P29274); test: Inhibition of [3H]-ZM 241385 binding to human adenosine A2a receptor expressed in CHO cells; type: cell-based
Adenosine receptor A2b = target: T2, Adenosine receptor A2b (Homo sapiens, UniProt P29275); test: Inhibition of 100 nM NECA-stimulated cAMP production in CHO cells expressing human adenosine A2B receptor; type: functional, cell-based
T2 sequence (P29275 whole entry): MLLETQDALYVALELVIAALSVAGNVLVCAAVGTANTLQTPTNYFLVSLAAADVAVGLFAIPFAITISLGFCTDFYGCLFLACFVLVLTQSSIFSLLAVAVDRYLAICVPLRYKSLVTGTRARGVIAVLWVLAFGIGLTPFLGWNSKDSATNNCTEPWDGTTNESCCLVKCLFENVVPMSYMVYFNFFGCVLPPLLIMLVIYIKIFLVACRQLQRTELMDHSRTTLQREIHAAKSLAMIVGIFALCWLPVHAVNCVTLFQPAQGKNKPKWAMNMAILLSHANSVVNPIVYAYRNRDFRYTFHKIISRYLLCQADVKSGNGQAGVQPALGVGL

[2] = target: Adenosine receptors; A1 & A3 (Homo sapiens) (UniProt P30542+P0DMS8); test: Relative binding affinity for human adenosine A1 and A3 receptors; type: protein assay
[3] = target: Adenosine receptors; A2b & A3 (Homo sapiens) (UniProt P29275+P0DMS8); test: Relative binding affinity for human adenosine A2b and A3 receptors; type: protein assay

Sequence of Adenosine receptors; A1 & A3 (Homo sapiens) (P0DMS8 whole entry, looked up, one chain of several): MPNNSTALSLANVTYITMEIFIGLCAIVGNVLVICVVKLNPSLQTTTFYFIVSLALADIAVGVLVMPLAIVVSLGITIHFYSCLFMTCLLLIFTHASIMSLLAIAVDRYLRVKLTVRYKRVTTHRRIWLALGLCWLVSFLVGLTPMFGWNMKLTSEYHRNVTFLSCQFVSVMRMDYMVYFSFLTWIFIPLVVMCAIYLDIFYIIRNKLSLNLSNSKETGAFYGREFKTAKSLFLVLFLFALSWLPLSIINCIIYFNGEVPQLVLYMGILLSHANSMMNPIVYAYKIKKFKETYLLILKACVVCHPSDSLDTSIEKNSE
Sequence of Adenosine receptor A2a (P29274 whole entry): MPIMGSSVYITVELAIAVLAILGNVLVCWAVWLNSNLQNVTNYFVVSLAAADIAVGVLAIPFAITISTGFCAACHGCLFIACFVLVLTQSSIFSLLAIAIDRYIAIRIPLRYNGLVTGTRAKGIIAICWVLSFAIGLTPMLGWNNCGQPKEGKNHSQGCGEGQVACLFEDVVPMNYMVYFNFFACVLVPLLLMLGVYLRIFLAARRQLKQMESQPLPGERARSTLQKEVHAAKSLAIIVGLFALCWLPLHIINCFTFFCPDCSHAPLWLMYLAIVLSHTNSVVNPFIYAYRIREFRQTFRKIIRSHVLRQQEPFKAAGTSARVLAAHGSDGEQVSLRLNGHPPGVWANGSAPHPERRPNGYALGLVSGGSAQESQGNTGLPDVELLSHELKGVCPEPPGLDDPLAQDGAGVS

| Selectivity [1] | Ki (Adenosine receptor A1) | Ki (Adenosine receptor A2a) | IC50 (Adenosine receptor A2b) | Selectivity [2] | Selectivity [3] | SMILES |
| --- | --- | --- | --- | --- | --- | --- |
| > 67 | > 1 µM | > 1 µM | > 1 µM | > 67 | > 67 | CCCn1c(=O)c2c(nc3[nH]c(CC)cn32)n(Cc2ccccc2)c1=O |
| > 17 | > 1 µM | > 1 µM | > 1 µM | > 17 | > 17 | CCCn1c(=O)c2c(nc3[nH]c(CC)c(C)n32)n(Cc2ccccc2)c1=O |
| > 13 | > 1 µM | > 1 µM | > 1 µM | > 13 | > 13 | CCCn1c(=O)c2c(nc3n2C(C)C(C)=C3)n(Cc2ccccc2)c1=O (stereo not given) |
| > 10 | > 1 µM | > 1 µM | > 1 µM | > 10 | > 10 | CCCn1c(=O)c2c(nc3[nH]c(C(C)(C)C)cn32)n(Cc2ccccc2)c1=O |
| > 45 | > 1 µM | > 1 µM | – | > 45 | – | CCCn1c(=O)c2c(nc3[nH]c(-c4ccc(F)cc4)cn32)n(Cc2ccccc2)c1=O |
| > 9 | > 1 µM | > 1 µM | – | > 9 | – | CCCn1c(=O)c2c(nc3[nH]c(-c4ccccc4)cn32)n(Cc2ccccc2)c1=O |
| > 18 | > 1 µM | > 1 µM | – | > 18 | – | CCCn1c(=O)c2c(nc3[nH]c(-c4ccc(OC)cc4)cn32)n(Cc2ccccc2)c1=O |
| – | > 1 µM | > 1 µM | – | – | – | CCCn1c(=O)c2c(nc3[nH]c(-c4ccc(-c5ccccc5)cc4)cn32)n(Cc2ccccc2)c1=O |
| – | – | – | > 1 µM | – | – | CCCn1c(=O)c2c(nc3n2CC(CC)=C3)n(Cc2ccccc2)c1=O |
| > 125 | > 1 µM | > 1 µM | – | > 125 | 50 | CCCn1c(=O)c2c(nc3n2CC(C)=C3)n(Cc2ccccc2)c1=O |
| > 2 | > 1 µM | > 1 µM | > 1 µM | > 2 | – | CCCn1c(=O)c2c(nc3[nH]c(C4CCCCC4)cn32)n(Cc2ccccc2)c1=O |
| > 32 | – | > 1 µM | > 1 µM | > 15 | > 32 | CCCn1c(=O)c2c(nc3[nH]c(C(C)C)cn32)n(Cc2ccccc2)c1=O |
| – | – | – | > 1 µM | – | – | CCCn1c(=O)c2c(nc3[nH]c(C)cn32)n(Cc2ccccc2)c1=O |
| > 28 | > 1 µM | > 1 µM | > 1 µM | > 28 | > 28 | CCCn1c(=O)c2c(nc3[nH]c(C)c(C)n32)n(Cc2ccccc2)c1=O |
| > 5 | > 1 µM | > 1 µM | – | > 5 | – | CCCn1c(=O)c2c(nc3n2CC(c2ccccc2)=C3)n(Cc2ccccc2)c1=O |
| > 44 | – | > 1 µM | > 1 µM | 15 | > 44 | CCCn1c(=O)c2c(nc3[nH]c(C4CC4)cn32)n(Cc2ccccc2)c1=O |
